Drawing on patent US12414952B2 (Merck Sharp & Dohme LLC, priority 2018, dated 2025), this text covers IC50 for 30 molecules.

pIC50: −log10 of the molar value.

In assay [1] the target is human A2b adenosine receptor (Homo sapiens (Human), UniProt P29275). In words: A2b binding affinity, radioligand filtration binding assay. The conditions noted are these: tritiated proprietary A2b antagonist, HEK293 membranes. How it is done: Measurement of A2b Binding Affinity
The reported affinity of the compounds of the invention for the human A2b adenosine receptor was determined experimentally using a radioligand filtration binding assay. This assay measures the amount of binding of a tritiated proprietary A2b receptor antagonist, in the presence and absence of a compound of the invention, to membranes made from HEK293 cells recombinantly expressing the human A2b adenosine receptor (Perkin Elmer, Cat. No. ES-013-C).
The filter plate was incubated for at least 1 h at 55° C. and allowed to dry. The bottom of the filter plate was then sealed with backing tape. […] The plates were then incubated for at least 20 min, and then the amount of radioactivity remaining in each well was determined using a TopCount® (Perkin Elmer) scintillation counter. After normalization to total and non-specific binding, the percent effect at each compound concentration was calculated. The plot of percent effect versus the log of compound concentration was analyzed electronically using a 4-parameter logistic fit based on the Levenberg-Marquardt algorithm to generate IC50 values.

Assay [2] deals with human A2a adenosine receptor (Homo sapiens (Human), UniProt P29274). The assay is described as follows: A2a binding affinity using radioligand binding, Method (A). The settings on record: Method (A): [3H]SCH58261 filtration binding. From the text: The A2a receptor affinity binding assay measured the amount of binding of a tritiated ligand with high affinity for the A2a adenosine receptor to membranes made from HEK293 or CHO cells recombinantly expressing the human A2a adenosine receptor, in the presence of varying concentrations of a compound of the invention. The data were generated using either filtration binding or a homogenous scintillation proximity assay (SPA).
Sequence of human A2a adenosine receptor (P29274 whole entry): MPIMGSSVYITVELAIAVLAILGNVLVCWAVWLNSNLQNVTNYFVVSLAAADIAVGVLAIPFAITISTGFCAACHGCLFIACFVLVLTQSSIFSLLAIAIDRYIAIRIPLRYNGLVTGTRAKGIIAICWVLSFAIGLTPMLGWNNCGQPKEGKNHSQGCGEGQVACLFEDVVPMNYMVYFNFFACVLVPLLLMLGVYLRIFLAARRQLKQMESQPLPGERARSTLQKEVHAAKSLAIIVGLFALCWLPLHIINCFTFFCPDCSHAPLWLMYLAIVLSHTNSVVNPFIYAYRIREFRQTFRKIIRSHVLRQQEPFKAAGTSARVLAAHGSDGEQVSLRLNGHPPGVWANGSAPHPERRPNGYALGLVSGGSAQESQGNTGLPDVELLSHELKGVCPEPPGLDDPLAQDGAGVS
Method (A): Measurement of A2a Binding Affinity Using Radioligand Binding
148 μL (5 μg/mL) membranes (Perkin Elmer, Cat. No. RBHA2aM400UA) and 2 μL compounds of the invention to be tested (test compound) were transferred to individual wells of a 96-well polypropylene assay plate and incubated for 15 to 30 min at room temperature. [^3H] SCH58261 ((7-(2-phenylethyl)-5-amino-2-(2-furyl)-pyrazolo-[4,3-e]-1,2,4-triazolo[1,5-c]pyrimidine)) was diluted in assay buffer (50 mM Tris pH 7.4, 10 mM MgCl2, 0.005% Tween20) to a concentration of 4 nM and 50 μL transferred to each well of the assay plate. […] The assay plate was incubated at room temperature for 60 min with agitation. […] Filtering was achieved by aspirating the contents of the assay plate for 5 sec, then washing and aspirating the contents three times with ice-cooled wash buffer (50 mM Tris-HCl pH 7.4, 150 mM NaCl) and allowing the vacuum manifold to dry the plate for […]. The filter plate was incubated for at least 1 h at 55° C. and allowed to dry. The bottom of the filter plate was sealed with backing tape. […] The plate was incubated for at least 20 min, and then the amount of radioactivity remaining in each well was determined using a TopCount® (Perkin Elmer) scintillation counter. After normalization to total and non-specific binding, the percent effect at each compound concentration was calculated. The plot of percent effect versus the log of compound concentration was analyzed electronically using a 4-parameter logistic fit based on the Levenberg-Marquardt algorithm to generate IC50 values.

Sequence of human A2b adenosine receptor (P29275 whole entry): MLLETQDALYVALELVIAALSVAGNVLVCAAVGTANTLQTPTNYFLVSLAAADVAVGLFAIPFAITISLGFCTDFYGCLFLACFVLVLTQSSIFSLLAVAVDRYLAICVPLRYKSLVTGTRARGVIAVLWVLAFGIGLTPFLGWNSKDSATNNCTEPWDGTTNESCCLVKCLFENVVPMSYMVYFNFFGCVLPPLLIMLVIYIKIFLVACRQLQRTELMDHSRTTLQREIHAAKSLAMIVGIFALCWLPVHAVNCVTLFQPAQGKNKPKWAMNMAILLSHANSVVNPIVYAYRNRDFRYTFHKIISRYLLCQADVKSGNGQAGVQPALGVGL

What is called pIC50 is the negative decadic logarithm of the IC50, by convention in mol/L. Lower therefore signals a large IC50. `Cc1ccc(-c2nc(N)c3nc(Cc4ccccc4)nn3c2C)cc1F` [Example 3.37]: the pIC50 in assay [1] was 5.43; in assay [2] it was 6.00.

As to `Cc1c(-c2cc(F)ccc2Cl)nc(N)c2nc(Cc3ccccc3)nn12` [Example 3.38], the results for the pIC50 in assay [1] and in assay [2] were 7.07 and 7.01, respectively.

`Cc1c(F)cccc1-c1nc(N)c2nc(Cc3ccccc3)nn2c1C` [Example 3.39]: the values for the negative-log IC50 (pIC50) in assay [1] and in assay [2] were 5.99 and 7.01, respectively.

For `Cc1c(-c2ccc(F)c(F)c2F)nc(N)c2nc(Cc3ccccc3)nn12` [Example 3.40], the pIC50 in assay [1] is 6.50; in assay [2], 6.55.

Turning to `Cc1c(-c2cccc(F)c2Cl)nc(N)c2nc(Cc3ccccc3)nn12` [Example 3.41], the negative-log IC50 (pIC50) is 6.13 in assay [1] and 6.54 in assay [2].

As for `Cc1c(-c2ccc(C#N)c(F)c2)nc(N)c2nc(Cc3ccccc3)nn12` [Example 3.42], the pIC50 in assay [1] was 5.76; in assay [2], 6.30.

For the molecule `COc1ccc(F)cc1-c1nc(N)c2nc(Cc3ccccc3)nn2c1C` [Example 3.43], the negative logarithm of the IC50 (pIC50) was 5.60 in assay [1] and 6.21 in assay [2].

For the molecule `Cc1c(-c2ccn(C)n2)nc(N)c2nc(Cc3ccccc3)nn12` [Example 3.46], the negative logarithm of the IC50 (pIC50) in assay [1] was 7.08; in assay [2], 8.36.

For `Cc1cccnc1Cc1nc2c(N)nc(-c3cc(F)ccc3F)c(C)n2n1` [Example 4.3, 6-(2,5-difluorophenyl)-5-methyl-2-((3-methylpyridin-2-yl)methyl)-[1,2,4]triazolo[1,5-a]pyrazin-8-amine], the results for the pIC50 in assay [1] and in assay [2] were 7.33 and 8.00, respectively.

With `Cc1c(-c2cc(F)ccc2F)nc(N)c2nc(Cc3ccc(F)cn3)nn12` [Example 4.4], the negative logarithm of the IC50 (pIC50) was 7.59 in assay [1] and 7.64 in assay [2].

As for `Cc1c(-c2cc(F)ccc2F)nc(N)c2nc(Cc3cccc4c3ncn4CC(F)F)nn12` [Example 4.5], the pIC50 in assay [1] was 7.50; in assay [2] it was 7.62.

`Cc1c(-c2ncco2)nc(N)n2nc(Cc3ccc4c(c3)ncn4CC(F)F)nc12` [Example 4.7]: the pIC50 in assay [1] is 8.12; in assay [2], 7.45.

Consider `Cc1c(-c2cc(F)ccc2F)nc(N)c2nc(Cc3ncccc3F)nn12` [Example 4.8], for which the figures for the negative logarithm of the IC50 (pIC50) in assay [1] and in assay [2] were 8.03 and 7.73, respectively.

In the case of `Cc1c(-c2ncco2)nc(N)c2nc(Cc3cccc4c3ncn4CC(C)(C)O)nn12` [Example 4.9], the pIC50 is 8.92 in assay [1] and 9.70 in assay [2].

Turning to `Cc1c(-c2ncco2)nc(N)c2nc(Cc3cccc4c3ncn4CC(F)F)nn12` [Example 4.10], the pIC50 is 8.19 in assay [1] and 9.15 in assay [2].

`Cc1c(-c2ncco2)nc(N)c2nc(Cc3ccc(C(C)(C)O)cn3)nn12` [Example 4.11]: the pIC50 in assay [1] was 7.18; in assay [2], 7.32.

With `Cc1c(-c2ncco2)nc(N)n2nc(Cc3ccc([C@H]4C[C@@](C)(O)C4)cc3)nc12` [Example 5.2, (1s,3s)-3-(4-((5-amino-8-methyl-7-(oxazol-2-yl)-[1,2,4]triazolo[1,5-c]pyrimidin-2-yl)methyl)phenyl)-1-methylcyclobutanol], the pIC50 in assay [1] was 8.80; in assay [2], 8.60.

As for `Cc1c(-c2ncco2)nc(N)n2nc(Cc3ccc([C@H]4C[C@](C)(O)C4)cc3)nc12` [Example 5.3, (1r,3r)-3-(4-((5-amino-8-methyl-7-(oxazol-2-yl)-[1,2,4]triazolo[1,5-c]pyrimidin-2-yl)methyl)phenyl)-1-methylcyclobutanol], the negative logarithm of the IC50 (pIC50) was 8.46 in assay [1] and 7.92 in assay [2].

Take `Cc1c(-c2ncco2)nc(N)n2nc(Cc3ccc(C4(O)CCC4)cc3)nc12` [Example 6.3, 1-(4-((5-amino-8-methyl-7-(oxazol-2-yl)-[1,2,4]triazolo[1,5-c]pyrimidin-2-yl)methyl)phenyl)cyclobutanol]: the values for the pIC50 in assay [1] and in assay [2] were 7.97 and 7.77, respectively.

For `COC1(c2ccc(Cc3nc4c(C)c(-c5ncco5)nc(N)n4n3)cc2)CCC1` [Example 6.4, 2-(4-(1-methoxycyclobutyl)benzyl)-8-methyl-7-(oxazol-2-yl)-[1,2,4]triazolo[1,5-c]pyrimidin-5-amine], the results for the negative-log IC50 (pIC50) in assay [1] and in assay [2] were 8.24 and 8.31, respectively.

Turning to `Cc1c(-c2ncco2)nc(N)n2nc(Cc3ccc(C(C)(C)O)cc3)nc12` [Example 6.5, 2-(4-((5-amino-8-methyl-7-(oxazol-2-yl)-[1,2,4]triazolo[1,5-c]pyrimidin-2-yl)methyl)phenyl)propan-2-ol], the pIC50 in assay [1] was 8.30; in assay [2], 7.41.

As for `Cc1c(-c2ncco2)nc(N)n2nc(Cc3cccc(C(C)(C)O)c3)nc12` [Example 6.6, 2-(3-((5-amino-8-methyl-7-(oxazol-2-yl)-[1,2,4]triazolo[1,5-c]pyrimidin-2-yl)methyl)phenyl)propan-2-ol], the pIC50 in assay [1] was 6.61; in assay [2], 8.72.

Turning to `Cc1c(-c2ncco2)nc(N)c2nc(Cc3ccc(C(C)(C)O)cc3)nn12` [Example 6.7, 2-(4-((8-amino-5-methyl-6-(oxazol-2-yl)-[1,2,4]triazolo[1,5-a]pyrazin-2-yl)methyl)phenyl)propan-2-ol], the pIC50 in assay [1] is 7.52; in assay [2], 7.80.

Regarding `Cc1c(-c2ncco2)nc(N)c2nc(Cc3cccc(C(C)(C)O)c3)nn12` [Example 6.8, 2-(3-((8-amino-5-methyl-6-(oxazol-2-yl)-[1,2,4]triazolo[1,5-a]pyrazin-2-yl)methyl)phenyl)propan-2-ol], the negative logarithm of the IC50 (pIC50) was 6.48 in assay [1] and 8.92 in assay [2].

On to `Cc1c(-c2ncco2)nc(N)n2nc(Cc3ccn(C)n3)nc12` [Example 7.6, 8-methyl-2-((1-methyl-1H-pyrazol-3-yl)methyl)-7-(oxazol-2-yl)-[1,2,4]triazolo[1,5-c]pyrimidin-5-amine], for which the pIC50 was 8.59 in assay [1] and 9.30 in assay [2].

For the molecule `Cc1cccnc1Cc1nc2c(N)nc(-c3ncco3)c(C)n2n1` [Example 8.3], the pIC50 was 7.52 in assay [1] and 8.89 in assay [2].

Consider `Cc1c(-c2ncco2)nc(N)c2nc(Cc3ncccc3F)nn12` [Example 8.4], for which the pIC50 in assay [1] is 7.73; in assay [2], 8.89.

Turning to `Cc1c(-c2ncco2)nc(N)n2nc(CNCc3ccc(C(F)(F)F)cc3)nc12` [Example 10.2, 8-methyl-7-(oxazol-2-yl)-2-(((4-(trifluoromethyl)benzyl)amino)methyl)-[1,2,4]triazolo[1,5-c]pyrimidin-5-amine], the values for the pIC50 in assay [1] and in assay [2] were 7.32 and 8.35, respectively.

As for `Cc1c(-c2ncco2)nc(N)n2nc(CN3CCc4cccnc43)nc12` [Example 10.3, 2-((2,3-dihydro-1H-pyrrolo[2,3-b]pyridin-1-yl)methyl)-8-methyl-7-(oxazol-2-yl)-[1,2,4]triazolo[1,5-c]pyrimidin-5-amine], the negative logarithm of the IC50 (pIC50) in assay [1] was 7.84; in assay [2] it was 9.40.

As for `Cc1c(-c2ncco2)nc(N)n2nc(CNCc3ccc(C(F)(F)F)cn3)nc12` [Example 10.4, 8-methyl-7-(oxazol-2-yl)-2-((((5-(trifluoromethyl)pyridin-2-yl)methyl)amino)methyl)-[1,2,4]triazolo[1,5-c]pyrimidin-5-amine], the negative logarithm of the IC50 (pIC50) in assay [1] is 6.48; in assay [2] it was 6.81.
